target: S. pneumoniae Topoisomerase IV ATPase (ParE) (Streptococcus pneumoniae serotype 4, UniProt Q59961); experiment: S. pneumoniae Topoisomerase IV ATPase inhibition; format: biochemical; details: values marked * are an average of two or more data points
Procedure, shortened: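 Malachite green/ammonium molybdate phosphate detection, A650. 1.25 nM ParE, 160 μM ATP, sheared salmon sperm DNA 5 μg/ml, 20 mM Tris pH 8.0, 8.0 mM MgCl2. Controls: 2% DMSO = 0%, 20 μM EDTA = 100% inhibition; IC50 over 10 concentrations.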

Sequence of S. pneumoniae Topoisomerase IV ATPase (ParE) (Q59961 whole entry): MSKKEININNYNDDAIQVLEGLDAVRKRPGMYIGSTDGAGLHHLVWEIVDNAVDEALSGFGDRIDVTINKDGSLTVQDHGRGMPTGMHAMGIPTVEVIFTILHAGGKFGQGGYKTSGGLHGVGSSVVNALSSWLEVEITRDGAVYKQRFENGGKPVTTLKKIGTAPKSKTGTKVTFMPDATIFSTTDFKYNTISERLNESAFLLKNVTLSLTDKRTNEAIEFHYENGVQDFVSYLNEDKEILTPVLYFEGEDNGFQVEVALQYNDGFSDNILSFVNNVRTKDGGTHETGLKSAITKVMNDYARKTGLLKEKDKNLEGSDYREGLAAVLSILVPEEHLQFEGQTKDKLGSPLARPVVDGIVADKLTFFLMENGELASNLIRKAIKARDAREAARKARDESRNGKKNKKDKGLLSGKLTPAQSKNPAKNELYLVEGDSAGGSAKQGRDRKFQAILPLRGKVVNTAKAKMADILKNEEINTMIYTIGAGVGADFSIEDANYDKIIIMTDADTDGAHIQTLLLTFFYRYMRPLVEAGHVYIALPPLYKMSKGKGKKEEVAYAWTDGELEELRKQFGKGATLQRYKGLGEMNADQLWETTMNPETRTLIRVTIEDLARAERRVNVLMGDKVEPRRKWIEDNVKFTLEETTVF

In the case of `O=C(O)[C@@H]1C[C@H]1c1cccc(-c2cnc(Nc3ccc(F)c(Cl)c3)nc2-n2ccc(C(F)(F)F)n2)c1` [Example 575, (1R,2R)-2-(3-(2-(3-chloro-4-fluorophenvlamino)-4-(3-(trifluoromethyl)-1H-pyrazol-1-yl)pyrimidin-5-yl)phenyl)cyclopropanecarboxylic acid], the “% Inh (13 μM) of S. pneumoniae Topoisomerase IV ATPase” value was 100%.

same assay, conditions: values marked * are an average of two or more data points, read-out: % Inh (13 μM) of S. pneumoniae Topoisomerase IV ATPase

Point of comparison: `COCCCNc1nc(Nc2ccc(F)c(Cl)c2)ncc1-c1cncnc1` [Example 75, N^2-(3-chloro-4-fluorophenyl)-N^4-(3-methoxypropyl)-5,5′-bipyrimidin-2,4-diamine], inhibition at 13 µM 97.6%. Against it:
- CCS(=O)(=O)NC(=O)c1cc(-c2cnc(Nc3cc(OC)cc(OC)c3)nc2-n2nc(C(F)(F)F)cc2C)cn(CCOC)c1=O [Example 1162, 5-(2-(3,5-dimethoxyphenylamino)-4-(5-methyl-3-(trifluoromethyl)-1H-pyrazol-1-yl)pyrimidin-5-yl)-N-(ethylsulfonyl)-1-(2-methoxyethyl)-2-oxo-1,2-dihydropyridiine-3-carboxamide] — higher, 100%
- O=C(O)c1cncc(-c2cnc(Nc3ccc(F)c(Cl)c3)nc2NCCn2cccn2)c1 [Example 260, 5-(2-[(3-chloro-4-fluorophenyl)amino]-4-{[2-(1H-pyrazol-1-yl)ethyl]amino}pyrimidin-5-yl)pyridine-3-carboxylic acid] — higher, 103%
- Cc1cc(C)cc(Nc2ncc(-c3cc(C(=O)O)c(=O)n(C)c3)c(-n3nc(C(F)(F)F)cc3C)n2)c1 [Example 1166, 5-(2-(3,5-dimethylphenylamino)-4-(5-methyl-3-(trifluoromethyl)-1H-pyrazol-1-yl)pyrimidin-5-yl)-1-methyl-2-oxo-1,2-dihydropyridine-3-carboxylic acid] — higher, 100%
- CCOC(=O)c1cncc(-c2cnc(Nc3cc(OC)cc(-n4cnnn4)c3)nc2N2CCOCC2)c1 [Example 380, 5-[2-(3-Methoxy-5-tetrazol-1-yl-phenylamino)-4-morpholin-4-yl-pyrimidin-5-yl]-nicotinic acid ethyl ester] — lower, 37%
- Cc1cc(C(F)(F)F)nn1-c1nc(Nc2cccc(Cl)c2)ncc1-c1cncc(C(=O)O)c1 [Example 744, 5-{2-[(3-chlorophenyl)amino]-4-[5-methyl-3-(trifluoromethyl)-1H-pyrazol-1-yl]pyrimidin-5-yl}pyridine-3-carboxylic acid] — higher, 100%
- O=C(O)/C=C/c1cccc(-c2cnc(Nc3ccc(F)c(Cl)c3)nc2N2CCN(C(=O)C3CC3)CC2)c1 [Example 287, (E)-3-(3-(2-(3-chloro-4-fluorophenylamino)-4-(4-(cyclopropanecarbonyl)-piperazin-1-yl)pyrimidin-5-yl)phenyl)acrylic acid] — lower, 97.2%
- CCS(=O)(=O)NC(=O)c1cc(-c2cnc(Nc3ccc(F)c(Cl)c3)nc2-n2ccc(C(F)(F)F)n2)cnc1OC [Example 1016, 5-(2-(3-Chloro-4-fluorophenylamino)-4-(3-(trifluoromethyl)-1H-pyrazol-1-yl)pyrimidin-5-yl)-N-(ethylsulfonyl)-2-methoxynicotinamide] — lower, 94%
- CCOC(=O)c1cncc(-c2cnc(Nc3ccc(F)c(Cl)c3)nc2N2CCN(CCOC)CC2)c1 [Example 150, ethyl 5-(2-(3-chloro-4-fluorophenylamino)-4-(4-(2-methoxyethyl)piperazin-1-yl)pyrimidin-5-yl)nicotinate] — lower, 53.3%
- COc1cc(Nc2ncc(-c3cccc(/C=C/C(=O)O)c3)c(N3CCOCC3)n2)cc([N+](=O)[O-])c1 [Example 453] — lower, 92%
- Cc1cc(F)cc(Nc2ncc(-c3cncc(C(=O)O)c3)c(-n3nc(C(F)(F)F)cc3C)n2)c1 [Example 771, 5-{2-[(3-fluoro-5-methylphenyl)-amino]-4-[5-methyl-3-(trifluoromethyl)-1H-pyrazol-1-yl]pyrimidin-5-yl}pyridine-3-carboxylic acid] — higher, 100%
- COc1ncc(-c2cnc(Nc3ccc(F)c(Cl)c3)nc2NCCCN(C)C)cn1 [Example 1, N^2-(3-chloro-4-fluorophenyl)-N^4-(3-(dimethylamino)propyl)-2′-methoxy-5,5′-bipyrimidine-2,4-diamine] — lower, 5.14%
- CN(C)CCCNc1nc(Nc2ccc(F)c(Cl)c2)ncc1-c1cccc(NS(C)(=O)=O)c1 [Example 3, N-(3-(2-(3-chloro-4-fluorophenylamino)-4-(3-(dimethylamino)propylamino)pyrimidin-5-yl)phenyl)methanesulfonamide] — lower, 56.8%
- COc1cc(Nc2ncc(-c3cnc(OC)c(C(=O)NS(=O)(=O)CCCN4CCOCC4)c3)c(-n3ccc(C(F)(F)F)n3)n2)cc(OC)c1 [Example 820, 5-{2-[(3,5-dimethoxyphenyl)amino]-4-[3-(trifluoromethyl)-1H-pyrazol-1-yl]pyrimidin-5-yl}-2-methoxy-N-{[3-(morpholin-4-yl)propyl]sulfonyl}pyridine-3-carboxamide] — higher, 100%
- COc1ccc(-c2cnc(Nc3ccc(F)c(Cl)c3)nc2NCCCN(C)C)cc1 [Example 25, N^2-(3-chloro-4-fluorophenyl)-N^4-[3-(dimethylamino)propyl]-5-(4-methoxyphenyl)-pyrimidine-2,4-diamine] — lower, 90.5%
- COc1cc(C#N)cc(Nc2ncc(-c3cncc(C(=O)O)c3)c(-n3ccc(C(F)(F)F)n3)n2)c1 [Example 732, 5-{2-[(3-cyano-5-methoxyphenyl)amino]-4-[3-(trifluoromethyl)-1H-pyrazol-1-yl]pyrimidin-5-yl}pyridine-3-carboxylic acid] — higher, 100%
- CN(C)CCCNc1nc(Nc2ccc(F)c(Cl)c2)ncc1-c1cn([Si](C)(C)C(C)(C)C)c2ccccc12 [Example 16, 5-[1-(tert-butyldimethylsilyl)-1H-indol-3-yl]-N^2-(3-chloro-4-fluorophenyl)-N^4-[3-(dimethylamino)propyl] pyrimidin-2,4-diamine] — lower, 55.3%
- COc1cc(Nc2ncc(-c3cccc(/C=C/C(=O)O)c3)c(-n3nc(C(F)(F)F)cc3C)n2)cc(C(F)(F)F)c1 [Example 880, (E)-3-(3-(2-(3-methoxy-5-(trifluoromethyl)phenylamino)-4-(5-methyl-3-(trifluoromethyl)-1H-pyrazol-1-yl)pyrimidin-5-yl)phenyl)acrylic acid] — lower, 91%
- Cn1cc(-c2cnc(Nc3ccc(F)c(Cl)c3)nc2-n2ccc(C(F)(F)F)n2)cc(C(=O)NS(C)(=O)=O)c1=O [Example 1048, 5-(2-(3-Chloro-4-fluorophenylamino)-4-(3-(trifluoromethyl)-1H-pyrazol-1-yl)pyrimidin-5-yl)-1-methyl-N-(methylsulfonyl)-2-oxo-1,2-dihydropyridine-3-carboxamide] — higher, 100%
- COc1cc(F)cc(Nc2ncc(-c3cncc(C(=O)O)c3)c(-n3ccc(C(F)(F)F)n3)n2)c1 [Example 914, 5-(2-(3-fluoro-5-methoxyphenylamino)-4-(3-(trifluoromthyl)-1H-pyrazol-1-yl)pyrimidin-5-yl)nicotinic acid] — higher, 100%
- Cc1cc(F)cc(Nc2ncc(-c3cncc(C(=O)O)c3)c(-n3ccc(C(F)(F)F)n3)n2)c1 [Example 770, 5-{2-[(3-fluoro-5-methylphenyl)-amino]-4-[3-(trifluoromethyl)-1H-pyrazol-1-yl]pyrimidin-5-yl}pyridine-3-carboxylic acid] — higher, 100%
- CNc1ncc(-c2cnc(Nc3cc(OC)cc(OC)c3)nc2-n2ccc(C(F)(F)F)n2)cc1C(=O)O [Example 586, 5-(2-(3,5-dimethoxyphenylamino)-4-(3-(trifluoromethyl)-1H-pyrazol-1-yl)pyrimidin-5-yl)-2-(methylamino)nicotinic acid] — higher, 100%
- COc1cc(Nc2ncc(-c3cnc(OC)c(C(=O)NS(C)(=O)=O)c3)c(-n3ccc(C4CC4)n3)n2)cc(OC)c1 [Example 1152, 5-(4-(3-cyclopropyl-1H-pyrazol-1-yl)-2-(3,5-dimethoxyphenylamino)pyrimidin-5-yl)-2-methoxy-N-(methylsulfonyl)nicotinamide] — higher, 100%
- COCCn1cc(-c2cnc(Nc3ccc(F)c(Cl)c3)nc2-n2ccc(C(F)(F)F)n2)cc(C(=O)O)c1=O [Example 1081, 5-(2-(3-Chloro-4-fluorophenylamino)-4-(3-(trifluoromethyl)-1H-pyrazol-1-yl)pyrimidin-5-yl)-1-(2-methoxyethyl)-2-oxo-1,2-dihydropyridine-3-carboxylic acid] — higher, 100%
- CN(C)CCCNc1nc(Nc2ccc(F)c(Cl)c2)ncc1-c1cccc(/C=C/C(=O)O)c1 [Example 29, (2E)-3-[3-(2-[(3-chloro-4-fluorophenyl)amino]-4-{[3-(dimethylamino)propyl]-amino}pyrimidin-5-yl)phenyl]prop-2-enoic acid] — higher, 99.7%
- Cc1cc(C(F)(F)F)nn1-c1nc(Nc2ccc(F)c(Cl)c2)ncc1-c1c[nH]c(=O)c(C(=O)O)c1 [Example 1094, 5-(2-(3-Chloro-4-fluorophenylamino)-4-(5-methyl-3-(trifluoromethyl)-1H-pyrazol-1-yl)pyrimidin-5-yl)-2-oxo-1,2-dihydropyridine-3-carboxylic acid] — higher, 99%
- COc1cc(Nc2ncc(-c3cnc(OCCNC(C)=O)c(C(=O)O)c3)c(-n3nc(C(F)(F)F)cc3C)n2)cc(OC)c1 [Example 957, 2-(2-acetamidoethoxy)-5-(2-(3,5-dimthoxyphenylamino)-4-(5-methyl-3-(trifluoromethyl)-1H-pyrazol-1-yl)pyrimidin-5-yl)nicotinic acid] — higher, 100%
- CCOC(=O)/C=C/c1cccc(-c2cnc(Nc3ccc(F)c(Cl)c3)nc2N2CCN(C)CC2)c1 [Example 170, (E)-ethyl 3-(3-(2-(3-chloro-4-fluorophenylamino)-4-(4-methylpiperazin-1-yl)pyrimidin-5-yl)phenyl)acrylate] — lower, 46%
